Test results as given in patent US9206219B2, “17-hydroxy-17-pentafluorethyl-estra-4,9(10)-dien-11-aryl derivatives, methods for the production thereof and the use thereof for treating diseases” (Bayer Intellectual Property GmbH, priority 2009, dated 2015).

Columns and labels:
[1] = target: T1, human progesterone receptor A (Homo sapiens, UniProt P06401); assay: Progesterone receptor-antagonistic action in stably transfected SK-N-MC cells, MMTV-LUC reporter (PR-A); format: cell-based; settings: antagonistic potency vs 0.1 nmol/l promegestone, 24 hours
T1 construct: expressed in transfected cells; host or cells: SK-N-MC human neuroblastoma cells, stably transfected with pRChPR-A-neo and pMMTV-LUC
T1 sequence (P06401 1-769 isoform P06401-2): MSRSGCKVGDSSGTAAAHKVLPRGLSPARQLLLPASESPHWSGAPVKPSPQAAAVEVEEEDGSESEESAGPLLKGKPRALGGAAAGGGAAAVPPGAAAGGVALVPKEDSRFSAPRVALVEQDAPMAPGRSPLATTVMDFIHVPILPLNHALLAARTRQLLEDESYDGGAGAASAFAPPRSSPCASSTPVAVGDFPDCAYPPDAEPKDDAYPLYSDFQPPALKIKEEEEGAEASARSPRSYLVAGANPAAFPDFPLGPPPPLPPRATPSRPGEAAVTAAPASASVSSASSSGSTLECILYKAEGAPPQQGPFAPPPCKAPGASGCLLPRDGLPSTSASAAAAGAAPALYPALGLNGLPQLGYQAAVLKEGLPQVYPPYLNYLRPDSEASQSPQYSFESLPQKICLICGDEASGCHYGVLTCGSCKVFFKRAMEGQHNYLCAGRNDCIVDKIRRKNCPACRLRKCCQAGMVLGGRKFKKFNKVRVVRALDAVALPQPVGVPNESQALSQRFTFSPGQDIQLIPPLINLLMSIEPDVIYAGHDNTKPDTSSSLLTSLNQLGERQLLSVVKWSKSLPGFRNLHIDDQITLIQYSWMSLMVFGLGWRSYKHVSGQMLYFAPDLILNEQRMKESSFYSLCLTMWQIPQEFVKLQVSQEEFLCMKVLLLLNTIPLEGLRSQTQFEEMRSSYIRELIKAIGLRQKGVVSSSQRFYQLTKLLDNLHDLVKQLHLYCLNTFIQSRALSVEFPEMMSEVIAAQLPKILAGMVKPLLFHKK
Method in brief: (§1)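 Stably transfected SK-N-MC cells express human PR-B or PR-A plus MMTV-LUC. For antagonism they were co-treated with 0.1 nmol/l promegestone and compound (0.01 nmol/l upward) for 24 hours. Luciferase in lysates was read as RLU and reported as % efficacy and IC50.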

[2] = target: T2, human progesterone receptor B (Homo sapiens, UniProt P06401); assay: Progesterone receptor-antagonistic action in stably transfected SK-N-MC cells, MMTV-LUC reporter (PR-B); format: cell-based; settings: antagonistic potency vs 0.1 nmol/l promegestone, 24 hours
T2 construct: expressed in transfected cells; host or cells: SK-N-MC human neuroblastoma cells, stably transfected with pRChPR-B-neo and pMMTV-LUC
T2 sequence (P06401 1-933): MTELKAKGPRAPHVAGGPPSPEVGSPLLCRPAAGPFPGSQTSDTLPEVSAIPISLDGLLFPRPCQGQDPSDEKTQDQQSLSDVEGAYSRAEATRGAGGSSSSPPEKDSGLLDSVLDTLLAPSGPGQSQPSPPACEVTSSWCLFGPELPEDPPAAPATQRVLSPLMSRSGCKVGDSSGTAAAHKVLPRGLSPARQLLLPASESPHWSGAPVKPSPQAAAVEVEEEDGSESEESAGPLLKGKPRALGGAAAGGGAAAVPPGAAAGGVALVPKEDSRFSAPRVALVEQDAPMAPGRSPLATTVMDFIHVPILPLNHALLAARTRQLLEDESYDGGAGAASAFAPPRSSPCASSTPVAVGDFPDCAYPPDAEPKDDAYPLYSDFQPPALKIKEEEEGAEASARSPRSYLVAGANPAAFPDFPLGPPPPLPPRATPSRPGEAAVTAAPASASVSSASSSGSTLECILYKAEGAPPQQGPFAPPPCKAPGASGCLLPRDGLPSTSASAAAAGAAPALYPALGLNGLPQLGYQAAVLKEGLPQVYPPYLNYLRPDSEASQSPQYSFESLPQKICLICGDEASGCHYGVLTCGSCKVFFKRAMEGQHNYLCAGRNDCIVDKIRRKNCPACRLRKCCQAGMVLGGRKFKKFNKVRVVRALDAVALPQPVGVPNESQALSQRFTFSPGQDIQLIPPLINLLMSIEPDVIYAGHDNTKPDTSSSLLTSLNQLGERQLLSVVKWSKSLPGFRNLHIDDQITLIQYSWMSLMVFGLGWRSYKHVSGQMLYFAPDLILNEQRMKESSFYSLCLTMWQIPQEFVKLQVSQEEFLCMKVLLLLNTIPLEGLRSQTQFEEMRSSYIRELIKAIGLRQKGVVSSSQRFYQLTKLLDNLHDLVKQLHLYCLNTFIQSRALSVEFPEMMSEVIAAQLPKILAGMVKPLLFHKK
Method in brief: as §1

[3] = Metabolic stability in rat liver microsomes; format: in vitro ADME; settings: calculated from liver microsome clearance
Experimental: (§2) Determination of Metabolic Stability in Human and Rat Liver Microsomes
(§3) The incubations were conducted with 2.4 ml of HLM solution (protein content 0.5 mg/ml), 30 μl of the test compound (final concentration 1 μM) and 0.6 ml of the cofactor mixture (=NADPH-generating system composed of 3 IU glucose-6-phosphate dehydrogenase, 14.6 mg glucose-6-phosphate, 1.2 mg NADP) at 37° C. in 100 mM phosphate buffer at pH 7.4. Samples were taken at 6 time points (2-60 min) and precipitated with an equal volume of methanol, and the recovery of the test substances used in the supernatant was determined by LC-MS/MS analysis. The half-life of substance degradation determined therefrom was used to calculate what is called the intrinsic clearance of the substance in the liver microsome preparation. […] In addition, under the assumptions that (i) absorption of the test substance is 100%, and (ii) the first pass is completely reflected by liver microsome metabolism, a maximum oral bioavailability (Fmax) was calculated.

[4] = Metabolic stability in human liver microsomes; format: in vitro ADME; settings: calculated from liver microsome clearance
Experimental: as §2
Isolated human liver microsomes (HLM) were used to assess the metabolic stability of compounds of general formula I.
as §3

SMILES: CC1(c2ccc([C@H]3C[C@@]4(C)[C@@H](CC[C@@]4(O)C(F)(F)C(F)(F)F)[C@@H]4CCC5=CC(=O)CCC5=C43)cc2)CC1 [Example 4, (8S,11R,13S,14S,17S)-17-hydroxy-13-methyl-11-[4-(1-methylcyclopropyl)phenyl]-17-pentafluoroethyl-1,2,6,7,8,11,12,13,14,15,16,17-dodecahydrocyclopenta[a]phenanthren-3-one]
- IC50 [1]: 0.012 nM
- IC50 [2]: 0.012 nM
- Predicted Fmax (maximum oral bioavailability) [3]: 52%
- Predicted Fmax (maximum oral bioavailability) [4]: 37%

SMILES: C[C@]12C[C@H](c3ccc(C#N)cc3)C3=C4CCC(=O)C=C4CC[C@H]3[C@@H]1CC[C@@]2(O)C(F)(F)C(F)(F)F [Example 30, 4-((8S,11R,13S,14S,17S)-17-hydroxy-13-methyl-3-oxo-17-pentafluoroethyl-2,3,6,7,8,11,12,13,14,15,16,17-dodecahydro-1H-cyclopenta[a]phenanthren-11-yl)benzonitrile]
- IC50 [1]: 0.02 nM
- IC50 [2]: 0.08 nM
- Predicted Fmax (maximum oral bioavailability) [3]: 79%
- Predicted Fmax (maximum oral bioavailability) [4]: 63%

SMILES: C[C@]12C[C@H](c3ccc(-c4ccc(-c5nnn[nH]5)cc4)cc3)C3=C4CCC(=O)C=C4CC[C@H]3[C@@H]1CC[C@@]2(O)C(F)(F)C(F)(F)F [Example 29, (8S,11R,13S,14S,17S)-17-hydroxy-13-methyl-17-pentafluoroethyl-11-[4′-(1H-tetrazol-5-yl)biphenyl-4-yl]-1,2,6,7,8,11,12,13,14,15,16,17-dodecahydrocyclopenta[a]phenanthren-3-one]
- IC50 [1]: 0.3 nM
- IC50 [2]: 0.9 nM
- Predicted Fmax (maximum oral bioavailability) [3]: 93%
- Predicted Fmax (maximum oral bioavailability) [4]: 69%
